# Test system: 171881-019-R-J1-PDC tumor spheroids, viability
# Assay: Anticancer human tumor 171881-019-R-J1-PDC patient-derived invasive breast carcinoma cell line growth inhibition [GQUAD]
# Details: spheroids with HUVEC and MSC; for IC50: curve of first compound; for viability, T/C: stronger effect = lower value
# In short: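 Multi-cell-type spheroids of tumor cells with HUVEC and mesenchymal stem cells, treated with drug combinations. Concentrations descend in half-log steps from near clinical Cmax, or from 10 microM where Cmax is unknown; viability read-out.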
# [1] = second compound 0.0316 µM, first compound 0.0316 µM
# [2] = second compound 0.0316 µM, first compound 0.1 µM
# [3] = second compound 0.0316 µM, first compound 0.316 µM
# [4] = second compound 0.0316 µM, first compound 1 µM
# [5] = second compound 0.0316 µM, first compound 3.16 µM
# [6] = second compound 0.0316 µM, first compound 10 µM
# [7] = second compound 0.1 µM, first compound 0.0316 µM
# [8] = second compound 0.1 µM, first compound 0.1 µM
# [9] = second compound 0.1 µM, first compound 0.316 µM
# [10] = second compound 0.1 µM, first compound 1 µM
# [11] = second compound 0.1 µM, first compound 3.16 µM
# [12] = second compound 0.1 µM, first compound 10 µM
# [13] = second compound 0.316 µM, first compound 0.0316 µM
# [14] = second compound 0.316 µM, first compound 0.1 µM
# [15] = second compound 0.316 µM, first compound 0.316 µM
# [16] = second compound 0.316 µM, first compound 1 µM
# [17] = second compound 0.316 µM, first compound 3.16 µM
# [18] = second compound 0.316 µM, first compound 10 µM
# [19] = second compound 1 µM, first compound 0.0316 µM
# [20] = second compound 1 µM, first compound 0.1 µM
# [21] = second compound 1 µM, first compound 0.316 µM
# [22] = second compound 1 µM, first compound 1 µM
# [23] = second compound 1 µM, first compound 3.16 µM
# [24] = second compound 1 µM, first compound 10 µM
# [25] = second compound 3.16 µM, first compound 0.0316 µM
# [26] = second compound 3.16 µM, first compound 0.1 µM
# [27] = second compound 3.16 µM, first compound 0.316 µM
# [28] = second compound 3.16 µM, first compound 1 µM
# [29] = second compound 3.16 µM, first compound 3.16 µM
# [30] = second compound 3.16 µM, first compound 10 µM
# [31] = second compound 10 µM, first compound 0.0316 µM
# [32] = second compound 10 µM, first compound 0.1 µM
# [33] = second compound 10 µM, first compound 0.316 µM
# [34] = second compound 10 µM, first compound 1 µM
# [35] = second compound 10 µM, first compound 3.16 µM
# [36] = second compound 10 µM, first compound 10 µM
# 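Note: spheroids exposed to compounds for 7 days.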
# 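Throughout, for viability, T/C: 100% = DMSO vehicle control viability.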
structure (smiles),measurement,setting,value
C=CCn1c(=O)c2cnc(Nc3ccc(N4CCN(C)CC4)cc3)nc2n1-c1cccc(C(C)(C)O)n1 + CN(C)c1ccc(Nc2c3ccc(NC(=O)CCN4CCCC4)cc3nc3cc(NC(=O)CCN4CCCC4)ccc23)cc1,IC50,second compound 0.0316 µM,783 nM
same,IC50,second compound 0.1 µM,707 nM
same,IC50,second compound 0.316 µM,< 31.6 nM
same,IC50,second compound 1 µM,< 31.6 nM
same,IC50,second compound 3.16 µM,< 31.6 nM
same,IC50,second compound 10 µM,< 31.6 nM
same,"viability, T/C",[1],105%
same,"viability, T/C",[2],86.5%
same,"viability, T/C",[3],87.6%
same,"viability, T/C",[4],40%
same,"viability, T/C",[5],21.3%
same,"viability, T/C",[6],23.7%
same,"viability, T/C",[7],106%
same,"viability, T/C",[8],99%
same,"viability, T/C",[9],66.8%
same,"viability, T/C",[10],45.5%
same,"viability, T/C",[11],24.1%
same,"viability, T/C",[12],27.5%
same,"viability, T/C",[13],39.8%
same,"viability, T/C",[14],38.4%
same,"viability, T/C",[15],36.4%
same,"viability, T/C",[16],15.2%
same,"viability, T/C",[17],16.5%
same,"viability, T/C",[18],9.97%
same,"viability, T/C",[19],3.15%
same,"viability, T/C",[20],2.55%
same,"viability, T/C",[21],3.78%
same,"viability, T/C",[22],2.12%
same,"viability, T/C",[23],1.52%
same,"viability, T/C",[24],1.18%
same,"viability, T/C",[25],0.41%
same,"viability, T/C",[26],0.2%
same,"viability, T/C",[27],0.36%
same,"viability, T/C",[28],0.19%
same,"viability, T/C",[29],0.51%
same,"viability, T/C",[30],0.13%
same,"viability, T/C",[31],0.13%
same,"viability, T/C",[32],0.12%
same,"viability, T/C",[33],0.54%
same,"viability, T/C",[34],0.29%
same,"viability, T/C",[35],0.16%
same,"viability, T/C",[36],0.14%
CC1COCCN1c1cc(-c2ccnn2C)c2ccnc(-c3ccn[nH]3)c2n1 (stereo not drawn) + Cc1[nH]c2ccc(F)cc2c1-c1nc2c3cccnc3c3ncccc3c2[nH]1,IC50,second compound 0.0316 µM,64.8 nM
same,IC50,second compound 0.1 µM,62.3 nM
same,IC50,second compound 0.316 µM,60.6 nM
same,IC50,second compound 1 µM,42.6 nM
same,IC50,second compound 3.16 µM,< 31.6 nM
same,IC50,second compound 10 µM,< 31.6 nM
same,"viability, T/C",[1],80%
same,"viability, T/C",[2],31.4%
same,"viability, T/C",[3],14.5%
same,"viability, T/C",[4],8.57%
same,"viability, T/C",[5],5.08%
same,"viability, T/C",[6],5.43%
same,"viability, T/C",[7],71.2%
same,"viability, T/C",[8],35.2%
same,"viability, T/C",[9],15.3%
same,"viability, T/C",[10],8.2%
same,"viability, T/C",[11],5.64%
same,"viability, T/C",[12],5.65%
same,"viability, T/C",[13],74%
same,"viability, T/C",[14],31%
same,"viability, T/C",[15],16.2%
same,"viability, T/C",[16],7.52%
same,"viability, T/C",[17],5.84%
same,"viability, T/C",[18],5.85%
same,"viability, T/C",[19],59%
same,"viability, T/C",[20],24.8%
same,"viability, T/C",[21],14.6%
same,"viability, T/C",[22],9.37%
same,"viability, T/C",[23],6.91%
same,"viability, T/C",[24],6.37%
same,"viability, T/C",[25],16.6%
same,"viability, T/C",[26],12.9%
same,"viability, T/C",[27],10.5%
same,"viability, T/C",[28],6.96%
same,"viability, T/C",[29],5.31%
same,"viability, T/C",[30],4.34%
same,"viability, T/C",[31],18%
same,"viability, T/C",[32],16.2%
same,"viability, T/C",[33],11.8%
same,"viability, T/C",[34],8.67%
same,"viability, T/C",[35],5.67%
same,"viability, T/C",[36],5.17%
CC1COCCN1c1cc(C2(S(C)(=N)=O)CC2)nc(-c2ccnc3[nH]ccc23)n1 (stereo not drawn) + Cc1[nH]c2ccc(F)cc2c1-c1nc2c3cccnc3c3ncccc3c2[nH]1,IC50,second compound 0.0316 µM,1170 nM
same,IC50,second compound 0.1 µM,1130 nM
same,IC50,second compound 0.316 µM,1130 nM
same,IC50,second compound 1 µM,749 nM
same,IC50,second compound 3.16 µM,< 31.6 nM
same,IC50,second compound 10 µM,< 31.6 nM
same,"viability, T/C",[1],97.5%
same,"viability, T/C",[2],97%
same,"viability, T/C",[3],87.4%
same,"viability, T/C",[4],55.4%
same,"viability, T/C",[5],18.6%
same,"viability, T/C",[6],9.09%
same,"viability, T/C",[7],103%
same,"viability, T/C",[8],100%
same,"viability, T/C",[9],87.7%
same,"viability, T/C",[10],53.6%
same,"viability, T/C",[11],21.1%
same,"viability, T/C",[12],10.5%
same,"viability, T/C",[13],97.2%
same,"viability, T/C",[14],75.4%
same,"viability, T/C",[15],86.2%
same,"viability, T/C",[16],51.6%
same,"viability, T/C",[17],21.9%
same,"viability, T/C",[18],10.2%
same,"viability, T/C",[19],78.2%
same,"viability, T/C",[20],76.6%
same,"viability, T/C",[21],75.6%
same,"viability, T/C",[22],41%
same,"viability, T/C",[23],18.9%
same,"viability, T/C",[24],9.88%
same,"viability, T/C",[25],21.5%
same,"viability, T/C",[26],15.3%
same,"viability, T/C",[27],17.2%
same,"viability, T/C",[28],13.9%
same,"viability, T/C",[29],10.2%
same,"viability, T/C",[30],6.81%
same,"viability, T/C",[31],46%
same,"viability, T/C",[32],49.4%
same,"viability, T/C",[33],36.5%
same,"viability, T/C",[34],22%
same,"viability, T/C",[35],14.5%
same,"viability, T/C",[36],8.3%
COc1ccc([C@@H](O)c2cc(-c3ncnc4cc(N5CCOCC5)ccc34)c(F)cc2Cl)nn1 + Cc1[nH]c2ccc(F)cc2c1-c1nc2c3cccnc3c3ncccc3c2[nH]1,IC50,second compound 0.0316 µM,740 nM
same,IC50,second compound 0.1 µM,756 nM
same,IC50,second compound 0.316 µM,573 nM
same,IC50,second compound 1 µM,429 nM
same,IC50,second compound 3.16 µM,< 31.6 nM
same,IC50,second compound 10 µM,< 31.6 nM
same,"viability, T/C",[1],107%
same,"viability, T/C",[2],81.3%
same,"viability, T/C",[3],74.5%
same,"viability, T/C",[4],45%
same,"viability, T/C",[5],14.7%
same,"viability, T/C",[6],5.38%
same,"viability, T/C",[7],87.2%
same,"viability, T/C",[8],84.5%
same,"viability, T/C",[9],70.1%
same,"viability, T/C",[10],44.6%
same,"viability, T/C",[11],14%
same,"viability, T/C",[12],5.6%
same,"viability, T/C",[13],85.6%
same,"viability, T/C",[14],90.2%
same,"viability, T/C",[15],56.5%
same,"viability, T/C",[16],41%
same,"viability, T/C",[17],15.5%
same,"viability, T/C",[18],5.95%
same,"viability, T/C",[19],94.2%
same,"viability, T/C",[20],67%
same,"viability, T/C",[21],64.4%
same,"viability, T/C",[22],32.3%
same,"viability, T/C",[23],12.2%
same,"viability, T/C",[24],6.67%
same,"viability, T/C",[25],28.9%
same,"viability, T/C",[26],15.3%
same,"viability, T/C",[27],14.5%
same,"viability, T/C",[28],9.07%
same,"viability, T/C",[29],8.31%
same,"viability, T/C",[30],4.66%
same,"viability, T/C",[31],37.8%
same,"viability, T/C",[32],45.4%
same,"viability, T/C",[33],26.6%
same,"viability, T/C",[34],17.3%
same,"viability, T/C",[35],9.52%
same,"viability, T/C",[36],5.39%

# Source: PubChem BioAssay AID2060498 (Molecular Pharmacology Branch, DTP, NCI, 2025)
